In BindingDB's records for doi:10.1016/0166-4328(96)00087-3 (Smithkline Beecham Pharmaceuticals, 1996):
“And” between values parts separate entries of the source, which are not always exact repeats. Identical values can stand only once.

How the values were obtained:
[1] = molecular target: 5-hydroxytryptamine receptor 1D (Homo sapiens, UniProt P28221)
D(1A) dopamine receptor [2] = molecular target: D(1A) dopamine receptor (Rattus norvegicus, UniProt P18901)
[3] = molecular target: Alpha-2C adrenergic receptor (Rattus norvegicus, UniProt P22086)
[4] = molecular target: 5-hydroxytryptamine receptor 2B (Rattus norvegicus, UniProt P30994)
[5] = molecular target: Alpha-1A adrenergic receptor (Oryctolagus cuniculus, UniProt O02824)
D(2) dopamine receptor [6] = molecular target: D(2) dopamine receptor (Rattus norvegicus, UniProt P61169)
Histamine H2 receptor = Histamine H2 receptor (Oryctolagus cuniculus, UniProt G1TWL8)
[7] = molecular target: 5-hydroxytryptamine receptor 1B (Oryctolagus cuniculus, UniProt P49144)
[8] = molecular target: 5-hydroxytryptamine receptor 2A (Oryctolagus cuniculus, UniProt G1SYA7)
Histamine H1 receptor = Histamine H1 receptor (Cavia porcellus, UniProt P31389)
[9] = molecular target: 5-hydroxytryptamine 1D receptor (Bos taurus, UniProt Q8MI13)
[10] = molecular target: 5-hydroxytryptamine receptor 1A (Rattus norvegicus, UniProt P19327)
[11] = molecular target: 5-hydroxytryptamine receptor 4 (Sus scrofa, UniProt Q29006)
[12] = molecular target: 5-hydroxytryptamine receptor 2A (Rattus norvegicus, UniProt P14842)
[13] = molecular target: Beta-2 adrenergic receptor (Sylvilagus floridanus, UniProt Q9BFY9)
[14] = molecular target: Beta-1 adrenergic receptor (Cavia porcellus, UniProt B0FL73)
[15] = molecular target: Muscarinic acetylcholine receptor M3 (Sus scrofa, UniProt P11483)
[16] = molecular target: 5-hydroxytryptamine receptor 3A (Rattus norvegicus, UniProt P35563)
[17] = molecular target: Alpha-1A adrenergic receptor (Rattus norvegicus, UniProt P43140)
[18] = molecular target: Alpha-2A adrenergic receptor (Homo sapiens, UniProt P08913)
[19] = molecular target: 5-hydroxytryptamine receptor 1D (Cavia porcellus, UniProt Q60484)
D(2) dopamine receptor [20] = molecular target: D(2) dopamine receptor (Homo sapiens, UniProt P14416)
[21] = molecular target: Beta-2 adrenergic receptor (Rattus norvegicus, UniProt P10608)
[22] = molecular target: 5-hydroxytryptamine receptor 2C (Rattus norvegicus, UniProt P08909)
[23] = molecular target: Beta-1 adrenergic receptor (Rattus norvegicus, UniProt P18090)
[24] = molecular target: Alpha-2B adrenergic receptor (Rattus norvegicus, UniProt P19328)
[25] = molecular target: 5-hydroxytryptamine receptor 2C (Homo sapiens, UniProt P28335)
[26] = molecular target: Gamma-aminobutyric acid receptor subunit alpha-1 (Rattus norvegicus, UniProt P62813)
[27] = molecular target: 5-hydroxytryptamine receptor 1B (Homo sapiens, UniProt P28222)
[28] = molecular target: 5-hydroxytryptamine receptor 1E (Homo sapiens, UniProt P28566)
[29] = molecular target: 5-hydroxytryptamine receptor 2C (Sus scrofa, UniProt G7ZKZ7)
D(1A) dopamine receptor [30] = molecular target: D(1A) dopamine receptor (Homo sapiens, UniProt P21728)

Chain of 5-hydroxytryptamine receptor 2B (P30994 whole entry): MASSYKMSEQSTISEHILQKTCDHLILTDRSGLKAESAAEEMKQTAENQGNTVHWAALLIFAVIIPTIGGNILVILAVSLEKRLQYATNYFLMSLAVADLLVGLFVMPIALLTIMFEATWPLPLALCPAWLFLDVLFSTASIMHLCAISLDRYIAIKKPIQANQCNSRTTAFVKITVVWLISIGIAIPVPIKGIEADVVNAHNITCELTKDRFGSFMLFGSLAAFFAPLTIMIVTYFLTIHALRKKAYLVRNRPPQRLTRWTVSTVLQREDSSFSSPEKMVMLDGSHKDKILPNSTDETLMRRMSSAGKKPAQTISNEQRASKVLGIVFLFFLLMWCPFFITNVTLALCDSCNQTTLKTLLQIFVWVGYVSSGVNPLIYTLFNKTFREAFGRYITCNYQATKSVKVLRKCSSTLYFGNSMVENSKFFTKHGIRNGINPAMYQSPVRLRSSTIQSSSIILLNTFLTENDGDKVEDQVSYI
Chain of 5-hydroxytryptamine receptor 2A (Rattus norvegicus, UniProt P14842) (P14842 whole entry): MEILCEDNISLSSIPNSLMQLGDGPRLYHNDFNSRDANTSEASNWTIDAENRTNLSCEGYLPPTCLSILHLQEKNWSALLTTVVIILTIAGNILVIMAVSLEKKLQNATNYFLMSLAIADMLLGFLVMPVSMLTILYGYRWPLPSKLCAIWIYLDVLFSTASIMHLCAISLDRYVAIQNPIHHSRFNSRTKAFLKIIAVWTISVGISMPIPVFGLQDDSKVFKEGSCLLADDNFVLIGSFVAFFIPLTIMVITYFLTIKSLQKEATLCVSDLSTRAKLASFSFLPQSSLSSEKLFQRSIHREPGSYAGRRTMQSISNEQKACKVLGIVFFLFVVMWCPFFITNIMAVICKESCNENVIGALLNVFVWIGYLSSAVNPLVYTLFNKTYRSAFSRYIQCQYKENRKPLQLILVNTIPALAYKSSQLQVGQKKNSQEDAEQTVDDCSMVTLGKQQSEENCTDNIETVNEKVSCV
Chain of Histamine H1 receptor (P31389 whole entry): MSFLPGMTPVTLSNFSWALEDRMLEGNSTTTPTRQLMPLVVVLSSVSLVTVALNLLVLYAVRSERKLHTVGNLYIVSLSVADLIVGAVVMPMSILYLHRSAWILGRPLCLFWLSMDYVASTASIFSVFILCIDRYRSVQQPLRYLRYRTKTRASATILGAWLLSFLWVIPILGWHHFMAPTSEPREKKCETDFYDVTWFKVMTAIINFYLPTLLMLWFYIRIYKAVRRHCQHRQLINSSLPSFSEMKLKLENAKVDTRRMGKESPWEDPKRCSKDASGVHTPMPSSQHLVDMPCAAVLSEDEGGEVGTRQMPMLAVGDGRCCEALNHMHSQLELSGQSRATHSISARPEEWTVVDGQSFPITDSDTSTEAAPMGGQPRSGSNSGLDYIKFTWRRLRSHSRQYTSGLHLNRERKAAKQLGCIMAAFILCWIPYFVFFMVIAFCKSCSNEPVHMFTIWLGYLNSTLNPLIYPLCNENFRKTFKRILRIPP
Chain of Alpha-1A adrenergic receptor (Rattus norvegicus, UniProt P43140) (P43140 whole entry): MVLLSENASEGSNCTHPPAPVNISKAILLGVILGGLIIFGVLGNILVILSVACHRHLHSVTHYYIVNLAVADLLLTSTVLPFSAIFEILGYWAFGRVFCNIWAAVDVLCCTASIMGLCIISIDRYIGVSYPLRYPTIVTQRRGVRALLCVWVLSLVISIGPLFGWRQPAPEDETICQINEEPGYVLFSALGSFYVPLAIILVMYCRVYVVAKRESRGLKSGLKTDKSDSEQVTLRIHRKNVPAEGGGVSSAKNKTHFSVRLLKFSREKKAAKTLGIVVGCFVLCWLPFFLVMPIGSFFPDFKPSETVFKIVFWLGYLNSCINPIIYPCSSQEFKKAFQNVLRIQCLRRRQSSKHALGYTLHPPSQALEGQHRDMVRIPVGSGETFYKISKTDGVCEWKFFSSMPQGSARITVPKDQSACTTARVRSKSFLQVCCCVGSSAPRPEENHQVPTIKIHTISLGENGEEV
Chain of Alpha-2C adrenergic receptor (P22086 whole entry): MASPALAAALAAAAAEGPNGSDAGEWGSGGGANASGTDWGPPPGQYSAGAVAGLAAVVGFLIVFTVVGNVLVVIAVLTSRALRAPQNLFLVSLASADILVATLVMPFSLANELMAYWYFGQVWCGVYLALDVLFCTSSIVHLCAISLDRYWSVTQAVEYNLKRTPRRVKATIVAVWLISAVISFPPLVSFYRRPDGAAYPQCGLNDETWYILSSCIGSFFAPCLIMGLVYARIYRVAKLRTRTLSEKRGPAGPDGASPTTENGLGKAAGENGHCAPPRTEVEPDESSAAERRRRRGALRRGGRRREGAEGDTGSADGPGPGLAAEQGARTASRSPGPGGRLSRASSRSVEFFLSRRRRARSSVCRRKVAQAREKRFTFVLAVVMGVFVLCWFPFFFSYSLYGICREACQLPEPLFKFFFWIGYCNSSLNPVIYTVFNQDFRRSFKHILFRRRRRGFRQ
Chain of 5-hydroxytryptamine receptor 4 (Q29006 whole entry): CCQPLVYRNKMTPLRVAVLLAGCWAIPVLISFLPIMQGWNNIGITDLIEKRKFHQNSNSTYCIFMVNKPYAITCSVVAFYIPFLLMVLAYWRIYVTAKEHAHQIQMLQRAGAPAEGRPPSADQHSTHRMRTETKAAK
Chain of 5-hydroxytryptamine receptor 1A (P19327 whole entry): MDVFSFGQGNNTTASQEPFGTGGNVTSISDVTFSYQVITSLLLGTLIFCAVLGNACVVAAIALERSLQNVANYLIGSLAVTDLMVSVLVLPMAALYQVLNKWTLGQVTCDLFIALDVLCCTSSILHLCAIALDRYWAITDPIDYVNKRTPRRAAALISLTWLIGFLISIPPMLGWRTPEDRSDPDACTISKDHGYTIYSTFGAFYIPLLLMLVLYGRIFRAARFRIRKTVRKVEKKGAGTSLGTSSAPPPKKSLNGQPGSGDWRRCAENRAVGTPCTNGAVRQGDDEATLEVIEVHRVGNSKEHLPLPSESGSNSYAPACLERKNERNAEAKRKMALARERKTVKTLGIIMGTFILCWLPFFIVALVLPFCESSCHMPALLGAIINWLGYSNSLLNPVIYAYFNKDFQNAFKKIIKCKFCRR
Chain of D(2) dopamine receptor (Homo sapiens, UniProt P14416) (P14416 whole entry): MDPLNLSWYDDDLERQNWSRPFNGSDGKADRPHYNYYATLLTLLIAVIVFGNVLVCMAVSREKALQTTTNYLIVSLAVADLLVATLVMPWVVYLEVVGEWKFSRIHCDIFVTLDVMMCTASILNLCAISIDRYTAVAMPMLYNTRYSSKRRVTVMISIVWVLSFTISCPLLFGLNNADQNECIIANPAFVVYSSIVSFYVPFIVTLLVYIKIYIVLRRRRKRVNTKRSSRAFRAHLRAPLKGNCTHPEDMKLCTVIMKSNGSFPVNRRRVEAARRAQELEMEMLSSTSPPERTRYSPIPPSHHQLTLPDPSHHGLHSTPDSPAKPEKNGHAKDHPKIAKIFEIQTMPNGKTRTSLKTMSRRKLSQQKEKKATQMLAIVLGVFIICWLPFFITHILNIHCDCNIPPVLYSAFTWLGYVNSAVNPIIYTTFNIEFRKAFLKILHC
Chain of D(1A) dopamine receptor (Rattus norvegicus, UniProt P18901) (P18901 whole entry): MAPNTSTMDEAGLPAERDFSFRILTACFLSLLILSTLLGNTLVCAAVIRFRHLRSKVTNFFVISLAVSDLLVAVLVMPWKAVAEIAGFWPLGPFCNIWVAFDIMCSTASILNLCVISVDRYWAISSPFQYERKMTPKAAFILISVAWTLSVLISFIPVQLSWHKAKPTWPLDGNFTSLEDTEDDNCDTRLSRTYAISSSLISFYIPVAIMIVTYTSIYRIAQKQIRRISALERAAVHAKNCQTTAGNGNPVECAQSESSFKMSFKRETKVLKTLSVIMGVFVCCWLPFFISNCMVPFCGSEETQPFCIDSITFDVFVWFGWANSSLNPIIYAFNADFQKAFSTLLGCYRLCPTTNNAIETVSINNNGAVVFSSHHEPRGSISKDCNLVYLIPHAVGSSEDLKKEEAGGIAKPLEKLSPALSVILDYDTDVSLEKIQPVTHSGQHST
Chain of 5-hydroxytryptamine receptor 1B (Oryctolagus cuniculus, UniProt P49144) (P49144 whole entry): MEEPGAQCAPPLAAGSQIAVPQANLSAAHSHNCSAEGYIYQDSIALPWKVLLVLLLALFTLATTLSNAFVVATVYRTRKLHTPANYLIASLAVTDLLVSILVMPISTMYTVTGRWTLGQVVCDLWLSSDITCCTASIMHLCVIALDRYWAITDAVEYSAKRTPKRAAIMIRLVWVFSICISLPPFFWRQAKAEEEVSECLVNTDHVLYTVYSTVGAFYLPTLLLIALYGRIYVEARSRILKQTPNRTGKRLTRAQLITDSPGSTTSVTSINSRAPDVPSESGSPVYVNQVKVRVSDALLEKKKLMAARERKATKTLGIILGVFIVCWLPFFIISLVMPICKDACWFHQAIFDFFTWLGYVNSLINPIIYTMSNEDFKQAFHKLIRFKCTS
Chain of Alpha-1A adrenergic receptor (Oryctolagus cuniculus, UniProt O02824) (O02824 whole entry): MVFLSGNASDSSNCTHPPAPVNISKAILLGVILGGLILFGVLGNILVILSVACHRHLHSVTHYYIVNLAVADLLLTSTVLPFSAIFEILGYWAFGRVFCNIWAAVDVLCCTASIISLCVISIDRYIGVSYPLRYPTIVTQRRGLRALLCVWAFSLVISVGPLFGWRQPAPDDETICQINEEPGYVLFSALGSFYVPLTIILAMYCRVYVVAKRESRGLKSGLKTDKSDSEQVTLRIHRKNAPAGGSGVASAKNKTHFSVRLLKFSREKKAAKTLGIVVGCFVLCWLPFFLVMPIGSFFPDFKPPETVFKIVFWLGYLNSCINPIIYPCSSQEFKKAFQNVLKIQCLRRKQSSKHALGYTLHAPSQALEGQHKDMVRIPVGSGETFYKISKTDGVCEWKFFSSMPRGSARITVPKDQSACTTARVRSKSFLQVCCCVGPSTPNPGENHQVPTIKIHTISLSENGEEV
Chain of Beta-2 adrenergic receptor (Sylvilagus floridanus, UniProt Q9BFY9) (Q9BFY9 whole entry): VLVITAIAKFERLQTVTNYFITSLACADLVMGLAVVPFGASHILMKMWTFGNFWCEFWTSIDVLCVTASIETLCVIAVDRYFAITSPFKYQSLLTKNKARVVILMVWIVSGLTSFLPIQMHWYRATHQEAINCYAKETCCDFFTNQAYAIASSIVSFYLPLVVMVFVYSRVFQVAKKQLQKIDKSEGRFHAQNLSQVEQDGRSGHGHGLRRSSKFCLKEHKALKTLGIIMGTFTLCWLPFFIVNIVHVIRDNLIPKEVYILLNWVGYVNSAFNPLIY

CC(N)Cc1c[nH]c2ccc(OCc3cccs3)cc12 (stereo not drawn) [NSC_5311036]
Ki [1]: 251 nM
Ki (D(1A) dopamine receptor [2]): > 10 µM
Ki [3]: > 10000 nM
Ki [4]: 25.1 nM
Ki [5]: > 10 µM
Ki (D(2) dopamine receptor [6]): > 10 µM
Ki (Histamine H2 receptor): > 10 µM
Ki [7]: > 10 µM
Ki [8]: > 10 µM
Ki (Histamine H1 receptor): > 10 µM
Ki [9]: 501 nM
Ki [10]: 1260 nM
Ki [11]: > 10 µM
Ki [12]: 3.98 µM
Ki [13]: > 10 µM
Ki [14]: > 10 µM
Ki [15]: > 10 µM

Cn1ccc2cc(NC(=O)Nc3cccnc3)ccc21 [SB 200646]
Ki [16]: > 10 µM
Ki (D(1A) dopamine receptor [2]): > 10 µM
Ki [17]: > 10000 nM
Ki [4]: 31.6 nM and 63.1 nM
Ki [18]: > 10 µM
Ki [19]: > 10 µM
Ki (D(2) dopamine receptor [20]): > 10 µM
Ki [21]: > 10 µM
Ki [22]: 126 nM
Ki [10]: > 10000 nM
Ki [23]: > 10 µM
Ki [24]: > 10 µM
Ki [12]: 6.31 µM and 5.01 µM
Ki [25]: 100 nM

Cc1cc(NC(=O)Nc2ccc3c(ccn3C)c2)sn1 [CAS_3277600]
Ki [17]: 1000 nM
Ki [26]: > 10 µM
Ki [27]: > 10 µM
Ki [3]: 1000 nM
Ki [4]: 15.9 nM and 50.1 nM
Ki [28]: > 10 µM
Ki (Histamine H1 receptor): > 10 µM
Ki [29]: 1000 nM
Ki (D(2) dopamine receptor [20]): > 10 µM
Ki [11]: > 10 µM
Ki [12]: 5.01 µM
Ki (D(1A) dopamine receptor [30]): > 10 µM
